Data reported in paper PMC4266362 (Journal of Medicinal Chemistry, 2014).

Tests used:
human GLP-1R = human GLP-1R (Homo sapiens, UniProt P43220); experiment: calcium mobilization PAM assay in human GLP-1R 9-3-H cells; assay type: cell-based
glucagon receptor (GR) = glucagon receptor (GR) (Homo sapiens, UniProt P47871); experiment: duplexed calcium mobilization assay, glucagon receptor; assay type: cell-based; conditions: EC20 of glucagon
primary mouse islets = experiment: glucose-stimulated insulin secretion, static islet incubation; assay type: cell-based
[1] = liver microsome predicted hepatic clearance, rat; assay type: in vitro ADME; conditions: well-stirred model
[2] = in vivo rat pharmacokinetics; conditions: male, Sprague-Dawley, plasma
[3] = in vivo rat brain distribution; conditions: Sprague-Dawley, intraperitoneal, 10 mg/kg
rats = experiment: spontaneous locomotor activity; assay type: in vivo; conditions: rat, 10–30 mg/kg i.p.
[4] = test system: 68 GPCRs, ion channels, and transporters; experiment: Eurofin radioligand binding panel; conditions: 10 μM, 68 targets
[5] = biological target: melanocortin 4 receptor (MC4R) (Homo sapiens, UniProt P32245); experiment: counter-screen against melanocortin 4 receptor; assay type: cell-based
Chain of melanocortin 4 receptor (MC4R) (P32245 whole entry, species assumed): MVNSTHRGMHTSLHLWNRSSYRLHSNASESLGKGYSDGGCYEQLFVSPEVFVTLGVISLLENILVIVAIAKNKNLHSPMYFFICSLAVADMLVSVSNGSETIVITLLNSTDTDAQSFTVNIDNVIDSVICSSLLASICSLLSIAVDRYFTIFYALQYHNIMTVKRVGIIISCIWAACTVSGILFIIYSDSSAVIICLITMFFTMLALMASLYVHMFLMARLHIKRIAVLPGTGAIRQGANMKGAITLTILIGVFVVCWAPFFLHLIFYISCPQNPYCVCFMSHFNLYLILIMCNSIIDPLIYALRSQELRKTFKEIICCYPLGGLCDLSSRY

Chain of human GLP-1R (P43220 24-463): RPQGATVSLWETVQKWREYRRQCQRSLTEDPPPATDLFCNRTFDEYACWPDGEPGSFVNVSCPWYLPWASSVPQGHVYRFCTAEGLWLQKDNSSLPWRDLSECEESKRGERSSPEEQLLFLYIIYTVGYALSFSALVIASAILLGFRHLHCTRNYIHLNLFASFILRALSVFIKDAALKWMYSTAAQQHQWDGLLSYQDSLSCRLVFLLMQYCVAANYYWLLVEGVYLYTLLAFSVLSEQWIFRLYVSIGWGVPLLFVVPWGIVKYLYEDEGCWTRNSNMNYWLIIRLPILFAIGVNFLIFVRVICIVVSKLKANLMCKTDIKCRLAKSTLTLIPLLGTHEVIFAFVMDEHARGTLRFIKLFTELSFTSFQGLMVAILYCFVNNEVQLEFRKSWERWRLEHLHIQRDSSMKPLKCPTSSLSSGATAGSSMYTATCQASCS
Chain of glucagon receptor (GR) (P47871 26-477, species assumed): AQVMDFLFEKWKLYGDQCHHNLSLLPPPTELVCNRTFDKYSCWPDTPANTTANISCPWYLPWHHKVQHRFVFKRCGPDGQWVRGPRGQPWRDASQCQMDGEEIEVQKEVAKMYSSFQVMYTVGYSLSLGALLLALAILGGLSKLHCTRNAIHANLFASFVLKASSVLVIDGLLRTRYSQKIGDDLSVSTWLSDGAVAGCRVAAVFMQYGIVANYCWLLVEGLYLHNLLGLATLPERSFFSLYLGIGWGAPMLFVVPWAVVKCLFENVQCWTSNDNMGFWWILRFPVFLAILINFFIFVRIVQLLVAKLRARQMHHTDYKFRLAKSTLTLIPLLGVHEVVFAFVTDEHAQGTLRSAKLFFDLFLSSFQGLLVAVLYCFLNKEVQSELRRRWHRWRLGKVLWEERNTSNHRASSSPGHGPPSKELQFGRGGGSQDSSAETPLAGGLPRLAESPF

CCN1CCC[C@H]1CNC(=O)c1cn(C2CCCC2)c(=O)c2c1c1ccccc1n2C [(S)-8]
calcium response in the absence of GLP-1 (human GLP-1R; compound alone): no calcium response | activity at GR (glucagon receptor (GR)): no effect | potentiation of glucose-stimulated insulin secretion (primary mouse islets; primary mouse islets, in the presence of 2): ~1.5 fold | rat CLHEP [1]: 69 mL/min/kg | clearance [2]: 92 mL/min/kg

CC(C)N1CCC[C@H]1CNC(=O)c1cn(C2CCCC2)c(=O)c2c1c1ccccc1n2C [(S)-9b, (S)-2-Cyclopentyl-N-((1-isopropylpyrrolidin-2-yl)methyl)-9-methyl-1-oxo-2,9-dihydro-1H-pyrido[3,4-b]indole-4-carboxamide]
GLP-1R PAM activity / mode (pure PAM or ago-PAM) (human GLP-1R; calcium mobilization): ago-PAMs | effect on insulin secretion (primary mouse islets; 30 μM, in presence of 10 nM 1, low (5.6 mM) and high (11 mM) glucose, 60 min): significantly increased insulin secretion | half-life ([2]; intravenous, 1 mg/kg): ~60 min | Tmax [3]: 30 min | effect on spontaneous locomotor activity (rats): no effect on locomotion or sedative effects | highest inhibition in radioligand binding panel [4]: ≤ 50%

CCN1CCCC1CNC(=O)c1cn(C2CCCC2)c(=O)c2c1c1ccccc1n2C (stereo not shown) [compound 8]
activity at GR (glucagon receptor (GR)): inactive | activity at MC4R [5]: inactive
